According to patent US4025508A, “6-(Trifluoromethyl)-benzothiadiazines” (Serdex - Societe d'Etudes, de Recherches, de Diffusion et …, priority 1973, dated 1977):

How the values were obtained:
[1] = tested on: glycemia; experiment: Hyperglycemia-producing activity, tests in rats (glycemia); format: in vivo, rat (adult white rats)
Protocol: The following test methods were used to determine the hyperglycemia-producing activity:
The experiments were conducted in adult white rats weighing 200 g+ 10 g.
The products were administered as a suspension in gummy julep, by stomach tube, at dosages of 10, 20 and 100 mg/kg, p.o.
At each dosage level, and in each case, lots of 10 test animals (5 male and 5 female) and of 10 reference animals (5 male and 5 female, administered only the gummy Julep) were used.
Blood samples were taken by cardiac puncture, at times 15, 60 minutes and 2, 4 and 24 hours after administration of the products, and the glycemia was determined.

[2] = tested on: glycemia; experiment: Hyperglycemia-producing activity, tests in dogs (glycemia); format: in vivo, dog; settings: p.o.
[3] = tested on: cardiovascular parameters; experiment: Cardiovascular parameters (blood pressures, cardiac rhythm) in anesthetized dogs; format: in vivo, dog; settings: 100 mg/kg, p.o.
[4] = Acute toxicity (LD50 /24 hours); settings: in vivo, po

## O=S1(=O)NC=Nc2cc(C(F)(F)F)c(F)cc21 [Example 1, 6-trifluoromethyl-7-fluoro-2H-1,2,4-benzothiadiazine-1,1-dioxide]
[1]; 100 mg/kg p.o., twenty-four hours after administration, from 0.839± 0.042 g/l
  glycemia after administration: 1.212 ± 0.041 g/L
[1]; 10 or 20 mg/kg, p.o.
  action on the glycemia: no significant action
[2]; 100 mg/kg
  increase of the glycemia: about 25%
[2]; 10 or 20 mg/kg
  action on the glycemia: no significant action
[3]
  action on the cardiac rhythm: nor on the cardiac rhythm
  action on the diastolic pressure: no significant action
  action on the differential pressure: no significant action
  action on the mean pressure: no significant action
  action on the systolic pressure: no significant action
[4]
  LD50 at 24 h: 3230 mg/kg
